Source: US11213543B2, “Human gastrointestinal microbiome modulating composition and methods of use” (priority 2011, dated 2022)
Entries after “also recorded” stand apart in the source; their conditions may differ.

Experiments:
[1] = metformin without FORMULA A
Protocol: They were started on metformin 500 mg twice a day and was instructed to measure their fasting blood sugar on a daily basis. Over the course of 7 days they were instructed to increase metformin to 1000 mg twice a day.

[2] = cited from earlier work
[3] = parameters: key: ↑indicates an increase is reported; ↓ indicates that a decrease is reported; conditions: reported in the references of Table 6, cited from earlier work

Molecule | stools / diarrhea on metformin [1] | weight loss ([2]; approximate) [kg] | incidence of diarrhea in diabetic patients taking the drug ([2]; compared to only 6% of diabetic patients not taking metformin) [%] | Function: TG ([3]; TG is triglyceride) | Function: GLP-1 [3] | Function: PYY [3] | Function: ghrelin [3] | Function: satiety [3] | Function: LDL chol [3] | Function: hunger [3]
CN(C)C(=N)N=C(N)N [metformin] | persistent watery stools; also recorded: Diarrhea | 2 to 3 | 20 | – | – | – | – | – | – | –
Inulin | – | – | – | ↓ | ↑ | ↑ | ↓ | ↑ | – | –
β-Glucan | – | – | – | – | ↑ | ↑ | ↓ | ↑ | ↓ | ↓
